Assay results as given in PMC5962351 (Nature, 2018).

How the values were obtained:
Assay type in all cases: binding
[1] = molecular target: GluN1 (GluN1/GluN2B NMDA receptor) (Xenopus laevis, UniProt A0A1L8F5J9+A7XY94)
[2] = molecular target: GluN1 (GluN1/GluN2B ∆ATD NMDA receptor) (Xenopus laevis, UniProt A0A1L8F5J9+A7XY94, A0A1L8F5J9:DEL23-393/A0A1L8F5J9:G610R); assay: X-ray crystal structure
[3] = molecular target: GluN1 (GluN1/GluN2B NMDA receptor) (Xenopus laevis, UniProt A0A1L8F5J9+A7XY94, A0A1L8F5J9:G610R); assay: competition with 3H-MK-801, scintillation proximity assay

For `C[C@]12N[C@H](Cc3ccccc31)c1ccccc12` [MK-801], the Kd [1] was 0.111 ± 0.0085 µM and the Kd [2] was 1.6 ± 0.3 µM.
Molecule `CC12CC3CC(C)(C1)CC(N)(C3)C2` [memantine] has a Ki [3] of about 147 µM.
